Test results taken from US20090018111A1, “Novel Antimicrobial Medicament” (priority 2004, published 2009).
Like-named read-outs stand apart in the source and are kept apart here.

Tests used:
Experiment in all cases: Sensitivity test (agar dilution)
S. aureus 209P = format: cell-based, Staphylococcus aureus; conditions: for MIC: Staphylococcus aureus, 209P
Outline: (§1)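 Standard Japanese agar dilution method. Drugs alone or combined were serially halved in Mueller Hinton agar, inoculated with overnight (37° C) cultures at about 10^6 CFU/ml. Values are MICs.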

[1] = test system: S. aureus MS94088 (hetero-MRSA); format: cell-based, Staphylococcus aureus; conditions: Staphylococcus aureus, MRSA
Outline: as §1

Str. pyogenes Cook = format: cell-based, Streptococcus pyogenes; conditions: Streptococcus pyogenes
Outline: as §1

E. faecalis ATCC19433 = format: cell-based, Enterococcus faecalis
Outline: as §1

B. subtilis ATCC6633 = format: cell-based, Bacillus subtilis; conditions: Bacillus subtilis
Outline: as §1

E. coli ML1410 = format: cell-based, Escherichia coli; conditions: Escherichia coli
Outline: as §1

E. coli NIHJ JC-2 = format: cell-based, Escherichia coli; conditions: Escherichia coli, E. coli NIHJ JC-2, read-out: MIC concomitant
Outline: as §1

[2] = Concomitant (IPM:SM = 1:1), read-out: MIC
[3] = Concomitant (MEPM:SM = 1:1), read-out: MIC
[4] = Concomitant (MEPM:SM = 1:2), read-out: MIC
[5] = Concomitant (MEPM:SM = 1:4), read-out: MIC
[6] = Concomitant drug (MEPM:SM = 2:1), read-out: MIC

Structure (SMILES): C[C@H]1C=C(c2csc(SC3=C(C(=O)O)N4C(=O)[C@H]([C@@H](C)O)[C@H]4[C@H]3C)n2)CN1 [SM, (4R,5S,6S)-6-[(1R)-1-Hydroxyethyl]-4-methyl-3-({4-[(5S)-5-methyl-2,5-dihydro-1H-pyrrol-3-yl]-1,3-thiazol-2-yl}sulfanyl)-7-oxo-1-azabicyclo[3.2.0]hept-2-ene-2-carboxylic acid]
- MIC (S. aureus 209P; Concomitant (AZT:SM = 1:1), S. aureus 209P, read-out: MIC concomitant): 0.008 µg/mL
- MIC (S. aureus 209P; Concomitant (BIPM:SM = 1:1), S. aureus 209P, read-out: MIC concomitant): 0.008 µg/mL
- MIC (S. aureus 209P; Concomitant (CAZ:SM = 1:1), S. aureus 209P, read-out: MIC concomitant): 0.004 µg/mL
- MIC (S. aureus 209P; Concomitant (CPFX:SM = 1:1), S. aureus 209P, read-out: MIC concomitant): 0.008 µg/mL
- MIC (S. aureus 209P; Concomitant (DRPM:SM = 1:1), S. aureus 209P, read-out: MIC concomitant): 0.004 µg/mL
- MIC (S. aureus 209P; [2]): 0.004 µg/mL
- MIC (S. aureus 209P; [3]): ≤ 0.016 µg/mL
- MIC (S. aureus 209P; [4]): ≤ 0.031 µg/mL
- MIC (S. aureus 209P; [5]): ≤ 0.063 µg/mL
- MIC (S. aureus 209P; Concomitant (PAPM:SM = 1:1), S. aureus 209P, read-out: MIC concomitant): 0.004 µg/mL
- MIC (S. aureus 209P; Concomitant (PIPC:SM = 1:1), S. aureus 209P, read-out: MIC concomitant): 0.004 µg/mL
- MIC (S. aureus 209P; [6]): ≤ 0.008 µg/mL
- MIC (S. aureus 209P; alone, read-out: MIC): ≤ 0.008 µg/mL
- MIC (S. aureus 209P; drug alone, S. aureus 209P, read-out: MIC alone): 0.008 µg/mL
- MIC alone (S. aureus 209P; drug alone, S. aureus 209P): 0.004 µg/mL
- MIC ([1]; Concomitant (AZT:SM = 1:1), S. aureus MS94088 (hetero-MRSA), read-out: MIC concomitant): 0.25 µg/mL
- MIC ([1]; Concomitant (BIPM:SM = 1:1), S. aureus MS94088 (hetero-MRSA), read-out: MIC concomitant): 0.25 µg/mL
- MIC ([1]; Concomitant (CAZ:SM = 1:1), S. aureus MS94088 (hetero-MRSA), read-out: MIC concomitant): 0.25 µg/mL
- MIC ([1]; Concomitant (CPFX:SM = 1:1), S. aureus MS94088 (hetero-MRSA), read-out: MIC concomitant): 0.125 µg/mL
- MIC ([1]; Concomitant (DRPM:SM = 1:1), S. aureus MS94088 (hetero-MRSA), read-out: MIC concomitant): 0.25 µg/mL
- MIC [1, 2]: 0.25 µg/mL
- MIC [1, 3]: 0.25 µg/mL
- MIC [1, 4]: 0.25 µg/mL
- MIC [1, 5]: 0.25 µg/mL
- MIC ([1]; Concomitant (PAPM:SM = 1:1), S. aureus MS94088 (hetero-MRSA), read-out: MIC concomitant): 0.25 µg/mL
- MIC ([1]; Concomitant (PIPC:SM = 1:1), S. aureus MS94088 (hetero-MRSA), read-out: MIC concomitant): 0.125 µg/mL
- MIC [1, 6]: 0.25 µg/mL
- MIC ([1]; alone, read-out: MIC): 0.25 µg/mL
- MIC ([1]; drug alone, S. aureus MS94088 (hetero-MRSA), read-out: MIC alone): 0.25 µg/mL
- MIC (Str. pyogenes Cook; Concomitant (AZT:SM = 1:1), Str. pyogenes Cook, read-out: MIC concomitant): 0.004 µg/mL
- MIC (Str. pyogenes Cook; Concomitant (BIPM:SM = 1:1), Str. pyogenes Cook, read-out: MIC concomitant): 0.004 µg/mL
- MIC (Str. pyogenes Cook; Concomitant (CAZ:SM = 1:1), Str. pyogenes Cook, read-out: MIC concomitant): 0.004 µg/mL
- MIC (Str. pyogenes Cook; Concomitant (CPFX:SM = 1:1), Str. pyogenes Cook, read-out: MIC concomitant): 0.004 µg/mL
- MIC (Str. pyogenes Cook; Concomitant (DRPM:SM = 1:1), Str. pyogenes Cook, read-out: MIC concomitant): ≤ 0.002 µg/mL
- MIC (Str. pyogenes Cook; [2]): ≤ 0.002 µg/mL
- MIC (Str. pyogenes Cook; [3]): ≤ 0.016 µg/mL
- MIC (Str. pyogenes Cook; [4]): ≤ 0.031 µg/mL
- MIC (Str. pyogenes Cook; [5]): ≤ 0.063 µg/mL
- MIC (Str. pyogenes Cook; Concomitant (PAPM:SM = 1:1), Str. pyogenes Cook, read-out: MIC concomitant): ≤ 0.002 µg/mL
- MIC (Str. pyogenes Cook; Concomitant (PIPC:SM = 1:1), Str. pyogenes Cook, read-out: MIC concomitant): ≤ 0.002 µg/mL
- MIC (Str. pyogenes Cook; [6]): ≤ 0.008 µg/mL
- MIC (Str. pyogenes Cook; alone, read-out: MIC): ≤ 0.008 µg/mL
- MIC (Str. pyogenes Cook; drug alone, Str. pyogenes Cook, read-out: MIC alone): 0.004 µg/mL
- MIC (E. faecalis ATCC19433; Enterococcus faecalis, ATCC19433, Concomitant (AZT:SM = 1:1), E. faecalis ATCC19433, read-out: MIC concomitant): 1 µg/mL
- MIC (E. faecalis ATCC19433; Enterococcus faecalis, ATCC19433, Concomitant (BIPM:SM = 1:1), E. faecalis ATCC19433, read-out: MIC concomitant): 1 µg/mL
- MIC (E. faecalis ATCC19433; Enterococcus faecalis, ATCC19433, Concomitant (CAZ:SM = 1:1), E. faecalis ATCC19433, read-out: MIC concomitant): 1 µg/mL
- MIC (E. faecalis ATCC19433; Enterococcus faecalis, ATCC19433, Concomitant (CPFX:SM = 1:1), E. faecalis ATCC19433, read-out: MIC concomitant): 0.5 µg/mL
- MIC (E. faecalis ATCC19433; Enterococcus faecalis, ATCC19433, Concomitant (DRPM:SM = 1:1), E. faecalis ATCC19433, read-out: MIC concomitant): 1 µg/mL
- MIC (E. faecalis ATCC19433; Enterococcus faecalis, ATCC19433, Concomitant (IPM:SM = 1:1), read-out: MIC): 0.5 µg/mL
- MIC (E. faecalis ATCC19433; Enterococcus faecalis, ATCC19433, Concomitant (MEPM:SM = 1:1), read-out: MIC): 1 µg/mL
- MIC (E. faecalis ATCC19433; Enterococcus faecalis, ATCC19433, Concomitant (MEPM:SM = 1:2), read-out: MIC): 1 µg/mL
- MIC (E. faecalis ATCC19433; Enterococcus faecalis, ATCC19433, Concomitant (MEPM:SM = 1:4), read-out: MIC): 1 µg/mL
- MIC (E. faecalis ATCC19433; Enterococcus faecalis, ATCC19433, Concomitant (PAPM:SM = 1:1), E. faecalis ATCC19433, read-out: MIC concomitant): 1 µg/mL
- MIC (E. faecalis ATCC19433; Enterococcus faecalis, ATCC19433, Concomitant (PIPC:SM = 1:1), E. faecalis ATCC19433, read-out: MIC concomitant): 0.5 µg/mL
- MIC (E. faecalis ATCC19433; Enterococcus faecalis, ATCC19433, Concomitant drug (MEPM:SM = 2:1), read-out: MIC): 0.5 µg/mL
- MIC (E. faecalis ATCC19433; Enterococcus faecalis, ATCC19433, alone, read-out: MIC): 1 µg/mL
- MIC (E. faecalis ATCC19433; Enterococcus faecalis, ATCC19433, drug alone, E. faecalis ATCC19433, read-out: MIC alone): 2 µg/mL
- MIC (E. faecalis ATCC19433; alone): 2 µg/mL
- MIC alone (E. faecalis ATCC19433; drug alone, E. faecalis ATCC19433): 1 µg/mL
- MIC (B. subtilis ATCC6633; ATCC6633, Concomitant (AZT:SM = 1:1), B. subtilis ATCC6633, read-out: MIC concomitant): ≤ 0.002 µg/mL
- MIC (B. subtilis ATCC6633; ATCC6633, Concomitant (BIPM:SM = 1:1), B. subtilis ATCC6633, read-out: MIC concomitant): ≤ 0.002 µg/mL
- MIC (B. subtilis ATCC6633; ATCC6633, Concomitant (CAZ:SM = 1:1), B. subtilis ATCC6633, read-out: MIC concomitant): ≤ 0.002 µg/mL
- MIC (B. subtilis ATCC6633; ATCC6633, Concomitant (CPFX:SM = 1:1), B. subtilis ATCC6633, read-out: MIC concomitant): 0.004 µg/mL
- MIC (B. subtilis ATCC6633; ATCC6633, Concomitant (DRPM:SM = 1:1), B. subtilis ATCC6633, read-out: MIC concomitant): ≤ 0.002 µg/mL
- MIC (B. subtilis ATCC6633; ATCC6633, Concomitant (IPM:SM = 1:1), read-out: MIC): ≤ 0.002 µg/mL
- MIC (B. subtilis ATCC6633; ATCC6633, Concomitant (MEPM:SM = 1:1), read-out: MIC): ≤ 0.016 µg/mL
- MIC (B. subtilis ATCC6633; ATCC6633, Concomitant (MEPM:SM = 1:2), read-out: MIC): ≤ 0.031 µg/mL
- MIC (B. subtilis ATCC6633; ATCC6633, Concomitant (MEPM:SM = 1:4), read-out: MIC): ≤ 0.063 µg/mL
- MIC (B. subtilis ATCC6633; ATCC6633, Concomitant (PAPM:SM = 1:1), B. subtilis ATCC6633, read-out: MIC concomitant): ≤ 0.002 µg/mL
- MIC (B. subtilis ATCC6633; ATCC6633, Concomitant (PIPC:SM = 1:1), B. subtilis ATCC6633, read-out: MIC concomitant): ≤ 0.002 µg/mL
- MIC (B. subtilis ATCC6633; ATCC6633, Concomitant drug (MEPM:SM = 2:1), read-out: MIC): ≤ 0.008 µg/mL
- MIC (B. subtilis ATCC6633; ATCC6633, alone, read-out: MIC): ≤ 0.008 µg/mL
- MIC (B. subtilis ATCC6633; ATCC6633, drug alone, B. subtilis ATCC6633, read-out: MIC alone): 0.004 µg/mL
- MIC (E. coli ML1410; ML1410, Concomitant (AZT:SM = 1:1), E. coli ML1410, read-out: MIC concomitant): 0.063 µg/mL
- MIC (E. coli ML1410; ML1410, Concomitant (BIPM:SM = 1:1), E. coli ML1410, read-out: MIC concomitant): 0.063 µg/mL
- MIC (E. coli ML1410; ML1410, Concomitant (CAZ:SM = 1:1), E. coli ML1410, read-out: MIC concomitant): 0.063 µg/mL
- MIC (E. coli ML1410; ML1410, Concomitant (CPFX:SM = 1:1), E. coli ML1410, read-out: MIC concomitant): 0.125 µg/mL
- MIC (E. coli ML1410; ML1410, Concomitant (DRPM:SM = 1:1), E. coli ML1410, read-out: MIC concomitant): 0.031 µg/mL
- MIC (E. coli ML1410; ML1410, Concomitant (IPM:SM = 1:1), read-out: MIC): 0.125 µg/mL
- MIC (E. coli ML1410; ML1410, Concomitant (MEPM:SM = 1:1), read-out: MIC): ≤ 0.016 µg/mL
- MIC (E. coli ML1410; ML1410, Concomitant (MEPM:SM = 1:2), read-out: MIC): ≤ 0.031 µg/mL
- MIC (E. coli ML1410; ML1410, Concomitant (MEPM:SM = 1:4), read-out: MIC): ≤ 0.063 µg/mL
- MIC (E. coli ML1410; ML1410, Concomitant (PAPM:SM = 1:1), E. coli ML1410, read-out: MIC concomitant): 0.125 µg/mL
- MIC (E. coli ML1410; ML1410, Concomitant (PIPC:SM = 1:1), E. coli ML1410, read-out: MIC concomitant): 0.125 µg/mL
- MIC (E. coli ML1410; ML1410, Concomitant drug (MEPM:SM = 2:1), read-out: MIC): ≤ 0.008 µg/mL
- MIC (E. coli ML1410; ML1410, alone, read-out: MIC): 0.25 µg/mL
- MIC (E. coli ML1410; ML1410, drug alone, E. coli ML1410, read-out: MIC alone): 0.25 µg/mL
- MIC (E. coli NIHJ JC-2; NIHJJC2, Concomitant (AZT:SM = 1:1)): 0.063 µg/mL
- MIC (E. coli NIHJ JC-2; NIHJJC2, Concomitant (BIPM:SM = 1:1)): 0.031 µg/mL
- MIC (E. coli NIHJ JC-2; NIHJJC2, Concomitant (CAZ:SM = 1:1)): 0.063 µg/mL
- MIC (E. coli NIHJ JC-2; NIHJJC2, Concomitant (CPFX:SM = 1:1)): ≤ 0.002 µg/mL
- MIC (E. coli NIHJ JC-2; NIHJJC2, Concomitant (DRPM:SM = 1:1)): 0.016 µg/mL
